Source: US10758551B2, “Methods and compositions for treating pancreatitis” (BAYLOR RESEARCH INSTITUTE, priority 2015, dated 2020)
Entries after “also recorded” stand apart in the source; their conditions may differ.

Key:
[1] = tested on: cerulein-induced pancreatitis; experiment: Standard chronic pancreatitis model: cerulein 7 hourly IP injections once per week for 4 weeks, WA one hour prior; format: in vivo, C57BL/6 mice
Description: (§1) C57BL/6 mice were injected with 7 hourly IP injections of cerulein at […] once per week for 4 weeks in a standard model for chronic pancreatitis or 6 hourly IP injections of cerulein at […] twice per week for 8 weeks in a stringent model for chronic pancreatitis. WA was administered one hour prior to cerulein beginning in week 1 in the standard model and beginning in week 5 in the stringent model of chronic pancreatits. Incidence of pancreatitis was confirmed by histopathological analysis of pancreas tissue, serum amylase levels, and neutrophil infiltration into pancreatic tissue. Cell proliferation was assessed by Ki67 staining. Pancreatic stone protein REG1α was analyzed by immunohistochemical staining. ImageJ software was used to quantify the area of positively stained cells.
(§2) Chronic pancreatitis (CP) model: Animals were subjected to repeated episodes of acute pancreatitis by supramaximal dose (50 ug/kg) of cerulein administration. Standard Chronic pancreatitis: Mice were fasted overnight prior cerulein injection with ad-libitum supply of water. CP was induced when cerulein was injected i.p. (50 ug/kg) every hour for a total of 7 injection, this injection was repeated once a week for 4 weeks. Control mice were injected with saline as sham treatment. Another group of mice received WA (1.25 mg/kg) 1 hr before the first cerulein injection every week (n=6 mice/group). Mice were then sacrificed and blood and tissue were processed as previously mentioned. Stringent chronic pancreatitis: Mice were fasted overnight prior cerulein injection with ad-libitum supply of water. CP was induced when cerulein was injected i.p. (50 ug/kg) every hour for a total of 6 injection, this injection was repeated twice a week for 8 weeks. WA (0.625 mg/kg) was injected 1 hr prior to first cerulein injection but administration was initiated at week 5 and continued till the end of the experiment. Mice were then sacrificed and tissue was harvested as previously mentioned.
Amylase activity assay: Serum samples obtained from mice after treatment were aliquoted and stored at −80 C until further analysis. Serum was analyzed for amylase activity as per the manufacturer's protocol.
(§3) Histology and Immunohistochemistry: Pancreas tissue was placed in 10% formalin immediately after harvesting and fixed for at least 48 hrs at 4° C. before processing. Tissue samples were paraffin embedded and 5 um sections were made and mounted on slides for staining. Hematoxylin and Eosin (H&E) staining was performed for histopathological evaluation. Sirius Red Staining was performed as per manufacturer's protocol on the sections to evaluate fibrotic change in the tissue section. To perform immunohistochemical staining, the sections were deparaffinized in xylene and rehydrated using ethanol. The slides were incubated in a citrate buffer of pH 6 with at 97° C. for 20 minutes. Following the antigen retrieval process, the slides were carefully washed 3 times for 5 minutes in Tris-buffered saline (TBS) containing 0.025% Triton X-100. The slides were blocked in 1% bovine serum albumin (BSA) in TBS for 2 hours at room temperature to block non-specific binding of the antibodies. Then the slides were incubated overnight with primary antibodies which were diluted in TBS with 1% BSA. The following day, the slides were gently rinsed 3 times for 5 minutes in TBS 0.025% Triton X-100. TRITC or FITC labelled secondary antibodies from Invitrogen were diluted in TBS with 1% BSA. The slides were counterstained with DAPI and mounted for microscopic analysis. ImageJ software was used to perform semi-quantitative analysis of the staining.
(§4) qRT-PCR: Pancreas tissue samples were stored in RNAlater at −80° C. until extraction procedure. Total RNA from the pancreas tissue were extracted using TRIzol reagent. Tissue was homogenized and debris was removed by centrifugation. Chloroform was added to separate the RNA from other biomolecules, and further precipitated using iso-propanol. […]

[2] = tested on: cerulein-induced pancreatitis; experiment: Stringent chronic pancreatitis model: cerulein 6 hourly IP injections twice per week for 8 weeks, WA from week 5; format: in vivo, C57BL/6 mice; settings: for Histopathology (H&E, Sirius red): pancreas damage, acinar cell atrophy, mononuclear cell infiltration, fibrosis: stringent model, cerulein (50 ug/kg) + Withaferin vs cerulein only, FIGS. 3C, 3F, six animals per group
Description: as §1, §2, §3
as §4, with “iso-propanol. RNA pellet was washed with ethanol and quantified using nanodrop 2000. cDNA synthesis was performed using high capacity cDNA reverse transcription kit as per manufacturer's protocol.” for “iso-propanol.”

[3] = tested on: cerulein induced acute pancreatitis; experiment: Acute pancreatitis model: cerulein 7 hourly IP injections, WA one hour prior; format: in vivo, C57BL/6 mice; settings: WA 1.25 mg/kg, n=5/group
Description: Acute pancreatitis (AP) model: Animals were fasted overnight prior to induction of pancreatitis by cerulein, water was given ad-libitum. Mice were injected with Cerulein (50 ug/kg intraperitoneally) or saline every hour for a total of 7 injections and were sacrificed 1 hr after the last injection. WA (1.25 mg/kg) was administered 1 hr before first cerulein injection (n=5 mice/group). […] Pancreas was divided for immunohistochemistry, RNA extraction, protein extraction, immune cell infiltration analysis. Amylase activity assay: Serum samples obtained from mice after treatment were aliquoted and stored at −80 C until further analysis. Serum was analyzed for amylase activity as per the manufacturer's protocol. Immune cell infiltration assay: Cell suspension was prepared from the pancreas tissue after digestion with collagenase (2 mg/mL) at 37° C. for 15 mins. Tissue was further mechanically digested by pipetting several times, the suspension was then washed and filtered to obtain only the single cell fraction. Cell suspension obtained was used for flow cytometric analysis of infiltrated immune cells. 1×10^6 pancreatic cells were labelled with anti-CD45, anti-CD11b, anti-CD14, and anti-Ly6g antibodies. Stained cells were detected using FACScanto II and data were analyzed using FlowJo software. To model acute pancreatitis, C57BL/6 mice were injected with 7 hourly IP injections of cerulein at 50 μg/kg. WA (1.25 mg/kg) was administered one hour prior to cerulein. […] Inflammatory cell infiltration was increased in cerulein-treated mice (FIGS. 18B, 18E, and 18H) compared to controls (FIGS. 18A, 18D, and 18G), but were reduced in cerulein and WA-treated mice (FIGS. 18C, 18F, and 18I) compared to cerulein-treated mice.

NF-κB p65 = NF-κB p65 immunohistochemical staining and protein blot of pancreas of cerulein treated mice; format: in vivo, mouse; settings: WA + cerulein vs cerulein treated mice
Description: as §3, with “The slides were counterstained with DAPI and mounted for microscopic analysis.” left out

[4] = tested on: cerulein-induced pancreatitis; experiment: Standard chronic pancreatitis model: cerulein 7 hourly IP injections once per week for 4 weeks, WA one hour prior; format: in vivo, C57BL/6 mice; settings: WA (1 mg/kg) without cerulein; FIG. 2B

How did the “Ki67+ area in pancreas (ImageJ, semi-quantitative)” value ([1]; Standard CP model, FIG. 9A, n=5/group) turn out when `CC1=C(CO)C(=O)O[C@@H]([C@@H](C)[C@H]2CC[C@H]3[C@@H]4C[C@H]5O[C@]56[C@@H](O)C=CC(=O)[C@]6(C)[C@H]4CC[C@]23C)C1` [WA, (4β,5β,6β,22R)-5,6-Epoxy-4,22,27-trihydroxy-1-oxoergosta-2,24-dien-26-oic acid 6-lactone] was run?
The value was “significantly lower Ki67+ area”.

And the “Histopathology (H&E): acinar cell atrophy, mononuclear cell infiltration, severity of chronic pancreatitis” value ([1]; WA + cerulein (50 ug/kg) vs cerulein only, FIG. 2D, six animals per group)?
Its value is “significantly reduced acinar cell atrophy and infiltration of mononuclear cells; also recorded: significantly reduced severity of chronic pancreatitis”.

What about the Serum amylase levels ([1]; WA + cerulein treated mice, cerulein only 952.8±228.8, p=0.045, FIG. 4) of the same compound?
Its Serum amylase levels is 696.3 ± 98.6 nmol/min/mL.

And the “Neutrophils migrated into pancreas” value ([1]; WA treated mice, cerulein only 3,742±1,188, p=0.03, FIGS. 7F, 7G, standard or stringent CP model not stated)?
The value was 719±276 cells per objective field at a magnification of ×200.

What about the “REG1α immunohistochemical staining of pancreas” value ([1]; WA treatment, cerulein only 3,779±448, p=0.003, brought to control levels, model not stated) of the same compound?
Its value is 544±43.

What about the “Ki67+ cells in the pancreas” value ([1]; WA+cerulein, cerulein only 20.0±16.0, FIG. 8, 9A-B (percentage of Ki67+ cells, ImageJ), model not stated) of the same compound?
The value was 3.8±2.9.

And the “Ly6g+ granulocyte infiltration of pancreas (immunohistochemical staining)” value ([1]; cerulein + WA vs cerulein, FIG. 7F, n=5/group, model not stated)?
Its value is “significantly reduced inflammatory cell infiltration”.

And the “Serum amylase level compared to cerulein treated mice” value ([1]; serum at week 3 and week 4, one hour after last injection, FIG. 4, n=6/group)?
Its value is “significantly lower serum amylase level”.

And the “Inflammasome gene expression in pancreas (qRT-PCR)” value ([1]; standard CP model, HMGB1, Pycard, NLRP3, IL-18, IL-1b, FIG. 13, n=4/group)?
The value was “decreased; also recorded: significantly reduced inflammasome related genes”.

And the “Pro-inflammatory and pro-apoptotic gene expression in pancreas (qRT-PCR)” value ([1]; standard CP model, IL-6, TNFα, Nos2, Casp3, Casp7, Bax, FIG. 15, n=4/group)?
Its value is “decreased; also recorded: significantly reduced most of these gene signals”.

What about the “ER stress gene expression in pancreas (qRT-PCR)” value ([1]; standard CP model, Perk, Atf6, Ern1, Eif2a, Atf4, xbp1, Chop, FIG. 11, n=4/group) of the same compound?
The value was “decreased; also recorded: significantly reduced ER stress gene signals”.

What about the “IL-6 in pancreas tissue lysate (Luminex)” value ([1]; standard chronic pancreatitis, FIG. 5A, n=4/group) of the same compound?
The value was “effectively blocked production”.

And the “MCP-1 in pancreas tissue lysate (Luminex)” value ([1]; standard chronic pancreatitis, FIG. 5B, n=4/group)?
The value was “effectively blocked production”.

What about the “Ki67+ area in pancreas (ImageJ, semi-quantitative)” value ([2]; Stringent CP Model, FIG. 9B, n=5/group) of the same compound?
Its value is “significantly lower Ki67+ area”.

What about the “Inflammasome gene expression in pancreas (qRT-PCR)” value ([2]; stringent CP model, HMGB1, NLRP3, IL-1b, FIG. 14, n=4/group) of the same compound?
The value was “decreased; also recorded: significantly reduced inflammasome related genes”.

What about the “Pro-inflammatory and pro-apoptotic gene expression in pancreas (qRT-PCR)” value ([2]; stringent CP model, IL-6, TNFα, Nos2, Bax, FIG. 16, n=4/group) of the same compound?
The value was “decreased; also recorded: significantly reduced most of these gene signals”.

What about the “ER stress gene expression in pancreas (qRT-PCR)” value ([2]; stringent CP model, Perk, Ern1, Atf6, Chop, xbp1, eif2a, Atf4, FIG. 12, n=4/group) of the same compound?
The value was “decreased; also recorded: significantly reduced ER stress gene signals”.

What about the “IL-6 in pancreas tissue lysate (Luminex)” value ([2]; stringent chronic pancreatitis, FIG. 6A, n=4/group) of the same compound?
The value was “effectively blocked production”.

And the “MCP-1 in pancreas tissue lysate (Luminex)” value ([2]; stringent chronic pancreatitis, FIG. 6B, n=4/group)?
Its value is “effectively blocked production”.

What about the “Histopathology (H&E, Sirius red): pancreas damage, acinar cell atrophy, mononuclear cell infiltration, fibrosis” value [2] of the same compound?
Its value is “significantly reduced acinar cell atrophy and infiltration of mononuclear cells”.

What about the “Histopathology (H&E, Sirius red): pancreas damage, acinar cell atrophy, mononuclear cell infiltration, fibrosis” value ([2]; listed as Withaferin) of the same compound?
Its value is “significantly reduced pancreas damage and fibrosis”.

What about the “Inflammatory cell infiltration into pancreas (flow cytometry)” value ([3]; CD45+CD11b+ myeloid cells, CD45+Ly6g+ granulocytes, CD45+CD14+ monocytes, FIG. 18) of the same compound?
Its value is “reduced percentage of infiltrating cells”.

What about the “Leucocyte (CD45+) infiltration into pancreas (flow cytometry)” value ([3]; FIG. 19G-J) of the same compound?
The value was “reduced percentage of infiltrating cells”.

What about the “Serum amylase compared to cerulein treated mice” value ([3]; serum one hour after last cerulein injection, FIG. 17) of the same compound?
Its value is “significantly decreased; also recorded: significantly reduced serum amylase”.

What about the “NF-κB p65 translocation into the nucleus (immunohistochemical staining of pancreatic tissue)” value (NF-κB p65; FIG. 10C) of the same compound?
Its value is “significantly prevented NF-κB translocation into the nucleus”.

What about the “NF-κB P65 protein expression in pancreatic lysate (protein blot)” value (NF-κB p65; FIG. 10D) of the same compound?
Its value is “significantly inhibited overexpression”.

What about the “Histopathology (H&E) of pancreas, WA alone” value [4] of the same compound?
The value was “normal phenotype”.
